Test results taken from US20260176319A1, “PEPTIDE ANALOGS AND METHODS OF USING THE SAME” (Kallyope, Inc., priority 2024, published 2026).
In brackets after ≈: the same amount, converted by molar mass. Where two headings read alike, the source gives them in different places. Starred links: 1 amine or outer side, 2 acyl side, 3 side chain; linkers in the order of their positions; H or OH if unused. Non-standard residues stand in square brackets, D forms with d. Residues, ends and D or L forms follow the SMILES beside them. *: point of attachment. Trp(7-Me) = Cc1cccc2c(C[C@H](N)C(=O)O)c[nH]c12; C20 diacid = O=C(O)CCCCCCCCCCCCCCCCCCC(=O)*; γGlu = O=C(O)[C@H](CCC(=O)[*:2])N[*:1]; NMeH = CN[C@@H](Cc1c[nH]cn1)C(=O)O; Nle = CCCC[C@H](N)C(=O)O; β3hA = C[C@H](N)CC(=O)O; AEEA = NCCOCCOCC(=O)O; βAla = NCCC(=O)O

Legend:
[1] = Food intake and body weight after subcutaneous administration in mice, 16 hours (Example A-2b); type: in vivo; settings: male C57BL/6J mice, single subcutaneous dose, peptide 500 nmol/kg, high fat diet
Excerpt: Male C57BL/6J mice, approximately 10 weeks old (Jackson Laboratory), were group housed in a 12-h light cycle room (6:00 AM on, 6:00 PM off) upon arrival and acclimated to the facility for a minimum of 1 week prior to the study. Animals were provided standard rodent chow (PicoLab Rodent Diet, 5053) ad libitum. Animals were single caged for a minimum of 3 days prior to the study. During the period prior to the study day, mice were exposed to one pellet of high fat diet (Research Diets D12492i) to avoid any effects of novelty in the study. On three separate days during this run-in period, mice were given one dose of phosphate-buffered saline (PBS; 5 mL/kg) by subcutaneous injection to acclimate them to the procedure. For baseline measures, pre-weighed meals of standard rodent chow were provided to each animal following acclimation dosing at 3:30 PM, and body weight was recorded. The next morning at 9:30 AM, food intake and body weight measurements were recorded at 16 hours following the presentation of the pre-weighed meal. These measurements and the resulting body weight changes were then used to assign mice to balanced cohorts. On the day of the study, mice were weighed and given a subcutaneous dose of either vehicle (PBS, 5 mL/kg; pH 5.0-8.5) or a peptide of the disclosure (500 nmol/kg; pH 5.0-8.5). Following dosing, a pre-weighed high fat diet was provided. Food intake and body weight measurements were taken at 16 hours following the provision of the pre-weighed high fat diet. […] Table 6 below describes the percent reduction in food intake and the percent body weight (BW) change with peptides as measured relative to the vehicle group.

[2] = Pharmacokinetics after intravenous peptide administration in mice; design: species or system C57BL/6 mice; settings: in vivo
Method: GPR-10 and peptides were dosed IV at 2 mg/kg as a formulation of 0.4 mg/mL in […]+65% water (pH 6-7).

[3] = target: T1, human GRP receptors (Homo sapiens, UniProt P30550); assay: IP1 GRPR activity: HTRF IP1-Gq assay in U2OS cells stably expressing human GRP receptors; type: cell-based; settings: 90 minutes incubation, read-out: hIP1 GRPR EC50
T1 construct: host or cells: U2OS
T1 sequence (P30550 whole entry): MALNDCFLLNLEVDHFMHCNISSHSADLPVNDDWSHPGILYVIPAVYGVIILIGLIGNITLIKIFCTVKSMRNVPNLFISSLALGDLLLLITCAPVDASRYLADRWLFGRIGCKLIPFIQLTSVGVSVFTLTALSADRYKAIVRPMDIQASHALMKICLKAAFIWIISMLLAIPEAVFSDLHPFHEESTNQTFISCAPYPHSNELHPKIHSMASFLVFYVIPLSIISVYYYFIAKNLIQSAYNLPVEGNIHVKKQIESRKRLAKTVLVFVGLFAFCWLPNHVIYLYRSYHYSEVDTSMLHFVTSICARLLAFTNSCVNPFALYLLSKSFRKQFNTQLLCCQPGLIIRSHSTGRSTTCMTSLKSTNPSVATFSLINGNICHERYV
Method: U2OS cells stably expressing human GRP receptors (DiscoverX, #93-0229C3) were cultured according to manufacturer's instructions. Cells were cultured to […], then collected using AccuTase (Innovative Cell Technologies, #AT104). Cells were washed and plated on a poly-D-lysine-coated 384-well plate (ThermoFisher, #A3890401) at a density of 2,500 cells/well in […] assay buffer (AssayComplete Cell Plating 5 Reagent, DiscoverX #93-0563R5), then incubated overnight at 37° C. and 5% C02. The following morning, a homogenous time-resolved fluorescence (HTRF) assay was performed in a 384-well plate format using the IP1-Gq assay kit (Cisbio, 62IPAPEB). Test compounds were made as a stock in DMSO, then serially diluted to generate 10-point dose response curves in IP1 stimulation buffer. Five microliters of the prepared compounds were then added to the plate containing cells and assay buffer in duplicate, and the cells were incubated at 37° C. and 5% CO2 for 90 minutes. Following compound incubation, […] of IP1 lysis/detection buffer (prepared according to manufacturer's instructions) was added to each well, and the plates were incubated at room temperature for 1 hour. HTRF signals were measured using a plate reader (ClarioSTAR), calculating the ratio between emissions at 665 nm and 620 nm (HTRF ratio). HTRF ratio for positive (Max, […]; SEQ ID NO. 45) and negative (Min, DMSO) controls were used to normalize HTRF data and generate values for % activity. EC50 and Max activity values were determined using a standard 4-parameter fit using GraphPad Prism.

[4] = physchem; type: physicochemical; settings: pH 8
Method: Solubility was measured in an appropriate buffer as follows. A known amount of compound, e.g., 20 mg, was placed in a vessel equipped with a stirring bar. A measured amount of buffer (e.g., 200-400 μL of 200 mM phosphate buffer) was added, and in some cases, additional surfactants, e.g., polysorbate 80 (PS80), polyethylene glycol (15)-hydroxystearate (Solutol® HS15), etc., were added. A measured amount of purified water (e.g., 1.6 mL) was added, and the pH was adjusted to the desired pH, e.g., pH 8, by addition of 0.5 N aqueous NaOH or 0.5 N aqueous HCl. The volume of added acid or base was recorded. The mixture was stirred at 300 rpm for 10 min. Additional purified water was added to reach a given volume, e.g., 4 mL, of solution. After stirring the sample at 300 rpm at room temperature for 1 h or 24 h, the appearance was observed and the pH measured.

[5] = mouse, C57BL/6 mice, IV 2 mg/kg, formulation of 0.4 mg/mL, read-out: CL
[6] = mouse, C57BL/6 mice, IV 2 mg/kg, formulation of 0.4 mg/mL, read-out: T1/2 (converted)

SMILES | % Body Weight Change at 16 hours (compared with vehicle) [1] [%] | % Reduction in Cumulative Food Intake over 16 hours (compared with vehicle) [1] [%] | clearance ([2]; C57BL/6, mouse, iv, 2 mg/kg) [mL/min/kg] | half-life ([2]; C57BL/6, mouse, iv, 2 mg/kg) [min] | EC50 [3] [nM] | solubility at 24 h [4] [µg/mL] | clearance [2, 5] [mL/min/kg] | half-life [2, 6] [min]
CCCC[C@H](NC(=O)[C@H](CC(C)C)NC(=O)[C@H](Cc1c[nH]cn1)NC(=O)CCNC(=O)[C@@H](NC(=O)[C@H](C)NC(=O)[C@H](Cc1c[nH]c2c(C)cccc12)NC(=O)[C@H](Cc1c[nH]cn1)NC(=O)[C@H](CCCNC(=N)N)NC(=O)CNC(=O)COCCOCCNC(=O)COCCOCCNC(=O)CC[C@H](NC(=O)CCCCCCCCCCCCCCCCCCC(=O)O)C(=O)O)C(C)C)C(N)=O [Peptide 242, Eicosanedioyl-γGlu-OEG-OEG-Gly-Arg-His-7MethylTrp-Ala-Val-β-Ala-His-Leu-Nle-NH2] ({C20 diacid-γGlu-AEEA-AEEA}-GRH[Trp(7-Me)]AV[βAla]HL[Nle]-NH2) | −9 | 55 | – | – | – | – | – | –
CCCC[C@H](NC(=O)[C@H](CC(C)C)NC(=O)[C@H](Cc1c[nH]cn1)NC(=O)C[C@H](C)NC(=O)[C@@H](NC(=O)[C@H](C)NC(=O)[C@H](Cc1c[nH]c2c(C)cccc12)NC(=O)[C@H](Cc1c[nH]cn1)NC(=O)[C@H](CCC(=O)O)NC(=O)CNC(=O)COCCOCCNC(=O)COCCOCCNC(=O)CC[C@H](NC(=O)CC[C@H](NC(=O)CCCCCCCCCCCCCCCCCCC(=O)O)C(=O)O)C(=O)O)C(C)C)C(N)=O [Peptide 247, Eicosanedioyl-γGlu-γGlu-OEG-OEG-Gly-Glu-His-7MeTrp-Ala-Val-BABA-His-Leu-Nle-NH2] ({C20 diacid-γGlu-γGlu-AEEA-AEEA}-GEH[Trp(7-Me)]AV[β3hA]HL[Nle]-NH2) | −11 | 65 | 0.18 | 450 | 1.8 | 4200 (≈ 2070 µM) | – | –
CCCC[C@H](NC(=O)[C@H](CC(C)C)NC(=O)[C@H](Cc1c[nH]cn1)N(C)C(=O)C[C@H](C)NC(=O)[C@@H](NC(=O)[C@H](C)NC(=O)[C@H](Cc1c[nH]c2c(C)cccc12)NC(=O)[C@H](Cc1c[nH]cn1)NC(=O)[C@H](CCC(=O)O)NC(=O)[C@H](CO)NC(=O)COCCOCCNC(=O)COCCOCCNC(=O)CC[C@H](NC(=O)CC[C@H](NC(=O)CCCCCCCCCCCCCCCCCCC(=O)O)C(=O)O)C(=O)O)C(C)C)C(N)=O [Peptide 277, Eicosanedioyl-γGlu-γGlu-OEG-OEG-Ser-Glu-His-7MeTrp-Ala-Val-BABA-NMeHis-Leu-Nle-NH2] ({C20 diacid-γGlu-γGlu-AEEA-AEEA}-SEH[Trp(7-Me)]AV[β3hA][NMeH]L[Nle]-NH2) | −12 | 69 | – | – | – | – | – | –
CCCC[C@H](NC(=O)[C@H](CC(C)C)NC(=O)[C@H](Cc1c[nH]cn1)NC(=O)CCNC(=O)[C@@H](NC(=O)[C@H](C)NC(=O)[C@H](Cc1c[nH]c2c(C)cccc12)NC(=O)[C@H](Cc1c[nH]cn1)NC(=O)[C@H](CCC(=O)O)NC(=O)[C@@H](CO)NC(=O)[C@H](CCC(=O)O)NC(=O)COCCOCCNC(=O)COCCOCCNC(=O)CC[C@H](NC(=O)CC[C@H](NC(=O)CCCCCCCCCCCCCCCCCCC(=O)O)C(=O)O)C(=O)O)C(C)C)C(N)=O [Peptide 248, Eicosanedioyl-γGlu-γGlu-OEG-OEG-Glu-D-Ser-Glu-His-7MeTrp-Ala-Val-β-Ala-His-Leu-Nle-NH2] ({C20 diacid-γGlu-γGlu-AEEA-AEEA}-E[dS]EH[Trp(7-Me)]AV[βAla]HL[Nle]-NH2) | −9 | 54 | – | – | – | – | 0.12 | 582
CCCC[C@H](NC(=O)[C@H](CC(C)C)NC(=O)[C@H](Cc1c[nH]cn1)N(C)C(=O)C[C@H](C)NC(=O)[C@@H](NC(=O)[C@H](C)NC(=O)[C@H](Cc1c[nH]c2c(C)cccc12)NC(=O)[C@H](Cc1c[nH]cn1)NC(=O)[C@H](CC(=O)O)NC(=O)CNC(=O)COCCOCCNC(=O)COCCOCCNC(=O)CC[C@H](NC(=O)CC[C@H](NC(=O)CCCCCCCCCCCCCCCCCCC(=O)O)C(=O)O)C(=O)O)C(C)C)C(N)=O [Peptide 278, Eicosanedioyl-γGlu-γGlu-OEG-OEG-Gly-Asp-His-7MeTrp-Ala-Val-BABA-NMeHis-Leu-Nle-NH2] ({C20 diacid-γGlu-γGlu-AEEA-AEEA}-GDH[Trp(7-Me)]AV[β3hA][NMeH]L[Nle]-NH2) | −12 | 63 | – | – | 10.8 | – | – | –
CCCC[C@H](NC(=O)[C@H](CC(C)C)NC(=O)[C@H](Cc1c[nH]cn1)NC(=O)CCNC(=O)[C@@H](NC(=O)[C@H](C)NC(=O)[C@H](Cc1c[nH]c2ccccc12)NC(=O)[C@H](Cc1c[nH]cn1)NC(=O)[C@H](CCC(N)=O)NC(=O)CNC(=O)COCCOCCNC(=O)COCCOCCNC(=O)CC[C@H](NC(=O)CCCCCCCCCCCCCCCCCCC(=O)O)C(=O)O)C(C)C)C(N)=O [Peptide 241, Eicosanedioyl-γGlu-OEG-OEG-Gly-Gln-His-Trp-Ala-Val-β-Ala-His-Leu-Nle-NH2] ({C20 diacid-γGlu-AEEA-AEEA}-GQHWAV[βAla]HL[Nle]-NH2) | −10 | 74 | – | – | – | – | 0.23 | 420
